# Assay results published in patent publication US9399032B2, “Methods and compositions for treating degenerative and ischemic disorders” (The General Hospital Corporation, priority 2009, dated 2016).
# Where a name gives a salt, the structure may show the parent alone.
# Key:
# [1] = system: human skin fibroblasts, mouse striatal cells, human embryonic kidney cells, and Hela cells; assay: OCR and ECAR in other cell types; type: cell-based; conditions: 50 μM, 200 minutes
# Protocol: The OCR and ECAR measurements on HeLa, 293, and STHdh^Q7/7 mouse striatal cells were carried out by growing them in XF24 plates at 40,000/well (HeLa) and STHdh^Q7/7 mouse striatal cells) and 60,000/well (293 cells) for ˜20 hours in their regular growth conditions. The assay medium was the same as above except that 25 mM glucose was used as the sugar source. The measurements were performed simultaneously every 7 minutes after a 2 minute mix and 2 minute wait period for MCH fibroblasts and every 6 minutes (with 2 minutes mix and 2 minute wait) for HeLa, 293, and STHdh^Q7/7 mouse striatal cells. Three baseline measurements were recorded prior to the addition of oligomycin (Biochemika 75352), Antimycin (Sigma A8674), roetnone (Sigma R8875), carbonyl cyanide 3-chlorophenylhydrazone (Sigma C2759) and meclizine hydrochloride (MSDiscovery 01500376). 50 mM stock solution of meclizine was made in DMSO, which was diluted to specified concentration in assay medium and its pH was adjusted to 7.4 by 1N Sodium hydroxide solution. The measurements were carried out at 33° C. for mouse striatal cells but for all other cell types measurement were done at 37° C.
# MCH58 fibroblasts [2] = system: MCH58 fibroblasts
# Protocol: Cell viability was assayed by calcein acetoxymethyl (AM) ester assay (Invitrogen C34852). MCH58 cells were seeded in 96-well plates at 5000 cells/well in DMEM high glucose medium. After ˜20 hours, cells were washed in PBS and the growth medium was replaced with 10 mM glucose or 10 mM galactose media containing different concentration of drugs or DMSO (0.1%). The cells were then grown for 72 hours followed by washing with PBS and addition of 5 μM calcein AM. After 30 minutes of incubation at 37° C., fluorescence was measured at an excitation and emission wavelength (ex/em) of 485 nm and 530 nm in a DTX880 multimode detector (Beckman Coulter).
# Total cellular ATP level was measured using the CellTiter-Glo Luminescent Viability assay (Promega, G7571). Cells were grown in 96-well plates at 5000 cells/well for MCH58 and 20,000 cells/well for mouse striatal cells.
# [3] = system: Adult rat ventricular cardiomyocytes; assay: Simulated ischemia-reperfusion injury in isolated cardiomyocytes; type: cell-based
# Protocol: The ability of meclizine to protect isolated cardiomyocytes and isolated hearts from ischemic injury was investigated as follows Adult rat ventricular cardiomyocytes were isolated by endotoxin-free collagenase perfusion, and the simulated ischemia-reperfusion injury was performed as previously described (Wojtovich and Brookes, Basic Res. Cardiol., 104:121-129 (2009)). Control cells were exposed to DMSO for 20 minutes. Test cells were exposed to either vehicle or doses of meclizine for 20 minutes, which was washed out before being subjected to ischemia for 60 minutes followed by reperfusion for 30 minutes under normoxic conditions in normoxic glucose-replete buffer at pH 7.4. Cell viability was assayed by Trypan blue exclusion. VO2 was assessed by isolating mitochondria and measuring both respirating cells and mitochondria using a Clark oxygen electrode (Wojtovich, supra).
# [4] = system: C. elegans expressing 128Q huntingtin fragment in touch receptor neurons; type: in vivo
# Protocol: Meclizine was also tested in an animal model of Huntington's disease. Transgenic C. elegans touch receptor neurons express an N-terminal fragment of huntingtin (htt) comprising 128 glutamine repeats, as opposed to seventeen glutamine repeats in the wild type protein. These neurons show polyQ-dependent neuronal dysfunction resulting in defective posterior mechanosensation. Parker et al., Nat Genet 37:349 (2005) Animals co-expressing YFP and N-terminal htt fused to CFP in touch receptor neurons were used for drug testing. See, eg., Parker et al., Proc Natl Acad Sci USA 98:13318 (2001). Synchronized L1 larvae, obtained by hypochlorite extraction, were incubated with drugs in 96 wells plates in 50 μl M9 medium with OP-50 bacteria and […] streptomycin, at 20° C. during 3 days as previously described. Three independent assays were performed and a minimum of 100 worms were tested per dose.
# Worms were treated with DMSO or 33 μM meclizine for 3 days. Animals were considered as touch responsive if they reacted after light touch (e.g., by initiating a backward movement). Out of 3 touches, 2 or 3 reactions were regarded as responsive, and 0 or 1 reaction was regarded as unresponsive. Htt aggregation and axonal morphology in PLM neurons were scored using light microscopy as previously described (Parker et al., Proc Natl Acad Sci USA 98:13318 (2001)). Htt aggregation was scored using CFP fluorescence, axonal dystrophy was quantified using YFP fluorescence to detect axonal swelling.
# Protein quantity was normalized using an anti-actin antibody (MP Biochemicals 69100).
# [5] = system: UAS-Htt-Q128/elav-GAL4 flies; assay: Transgenic Drosophila melanogaster model of Huntington's disease; type: in vivo; conditions: 33 μM, 10 days
# Protocol: Meclizine was also tested in a transgenic insect model of Huntington's disease in which the first 548 amino acids of human Htt (containing 128 glutamines) was expressed in the […] of Drosophila melanogaster. The UAS-Htt-Q0 and UAS-Htt-[…] lines encoding the first 548 amino acids of human Htt containing either 0 or 128 glutamines, respectively (7), were gifts from Troy Littleton. The elav-GAL4 driver was from the Bloomington Stock Center (#8765). The UAS-Htt-[…] line was crossed to elav-GAL4/CyO to obtain […] flies. Equal numbers of newly enclosed UAS-[…] flies were added to vials containing Carolina Biological Instant Fly food that had been freshly made up with water and meclizine or DMSO vehicle at different concentrations (100, 33, 11 or 3 μM). Flies were changed to fresh food and drug every 2 days and were maintained at 25° C. throughout the experiment. Neurodegeneration was assessed using the pseudopupil technique at day 10 by scoring the rhabdomere number/ommatidium from at least 8 animals for each condition; see Jackson et al., Neuron 21:633 (1998). The experiment was performed twice and scoring was conducted in a blinded manner. Western blot analysis using mouse anti-human HD (mAb2216 from Chemicon, Temecula, Calif.) was performed using lysates from UAS-[…] adult flies that had been fed on either meclizine or DMSO at 33 μM for 10 days.
# [6] = system: Immortalized mouse striatal 20A5 cells; assay: Oxygen and glucose deprivation model of ischemia and reperfusion; type: cell-based; conditions: 25 μM pretreatment for 8 hours, over vehicle
# Protocol: Immortalized mouse striatal 20A5 cells grown in DMEM with 10% dialyzed fetal bovine serum were exposed to oxygen and glucose deprivation for 18 hours followed by 12 hours of recovery in normoxia with full media. This IR model induces roughly 30% decrease in cell viability as measured by the ATP luminescence assay CellTiter-GLO.
# Trypanosoma brucei = assay: Effectiveness against Trypanosoma brucei; type: cell-based; conditions: kills Trypanosoma brucei; read-out: ED50 (the source's name)
# MCH58 fibroblasts [7] = assay: Glucose versus galactose cell growth screen (metabolic state-dependent lethality); conditions: approximately 10 μM compound, 72 hours; log10 fold change of normalized cell number in glucose versus galactose
# Protocol: The assay included monitoring or measuring cell growth in cells that are grown in glucose (which allows the cell to utilize glycolysis) or in galactose (which switches the cell energy production from glycolysis to the OXPHOS pathway).
# The high glucose medium was replaced with 10 mM glucose or 10 mM galactose wherever indicated. All media contained 1 mM pyruvate and 4 mM glutamine.
# Cell number quantification high throughput assays were performed as follows. […] 24 hours later, cells were washed twice in PBS and media was replaced with either 10 mM glucose or 10 mM galactose containing media.
# Approximately 100 nL of each compound was pin-transferred in duplicate into the plates with a steel pin array using the CyBi-Well robot (CyBio). […] Compound-treated plates were incubated at 37° C. for 72 hours. […] Wells were then washed once and stored in PBS. Cell culture plates were stored at 4° C. until time of imaging, which was at most 24 hours after fixation.
# Imaging was performed by Arrayscan VTi automated microscope (ThermoFisher Scientific) with the use of an automated plate stacker. Appropriate filter sets for the detection of the Hoescht fluorescent signal were used. Four non-overlapping images at 5× magnification (NA 0.25) were acquired for a field of view of 1.3 mm×1.3 mm per image. The plate stacker and microscope including an auto-focusing algorithm were controlled entirely with ArrayScan software. Images were captured and stored simultaneously in at least two independent locations. Image analysis was performed using the freely available open-source software package CellProfiler. […] Images were analyzed individually by first identifying nuclei using the Hoescht staining signal.
# Total number of nuclei per field were recorded, and the four images per well were totaled to give the cell count per well. Computation was performed using a UNIX computer cluster. Appropriate masking of each nucleus was ensured by visually monitoring each batch at its onset and intermittently throughout the run.
# The fibroblast cells were seeded on Day 0 and incubated for 24 hours in standard culture media.
# Normalized cell counts were computed separately for each 96-well plate by dividing the cell count of each well with the trimmed mean (the average after discarding the largest and smallest value) of the cell counts for the 16 DMSO treated wells. […] The remaining replicate measurements were averaged, and fold changes were computed as the ratio between the average normalized counts for the glucose and galactose screens. To evaluate statistical significance, Z-scores were computed for each well against the DMSO (null) distribution and averaged Z-scores across replicates. Wells with average Z-score greater than 2.5 were considered significant.
# By jointly analyzing the glucose and galactose results, a glucose-galactose cell growth ratio can be calculated (Sglu/gal) that represents the log10 fold-change in cell growth in a glucose rich media divided by the log10 fold-change in cell growth in a galactose rich media. […] Low Sglu/gal scores (e.g., ranging between approximately (−) 0.1 to (−) 0.7) may arise from inhibition of glycolysis or from inhibition of proliferation, since cells grown in glucose-rich media divide more rapidly.
smiles,measurement,setting,value
"Cc1cccc(CN2CCN(C(c3ccccc3)c3ccc(Cl)cc3)CC2)c1 (racemic) [Meclizine, meclizine hydrochloride]",oxygen consumption and extracellular acidification rate in other cell types,[1],reductions in oxygen consumption and concomitant increase in extracellular acidification rate
same,"cellular ATP levels, galactose-rich relative to glucose-rich media",MCH58 fibroblasts [2]; MCH58,more sensitive
same,LD50 in galactose-rich media as compared to glucose-rich media,MCH58 fibroblasts [2]; human,at least two-fold difference
same,growth of fibroblasts,MCH58 fibroblasts [2]; over a three-day period,retard the growth of fibroblasts in a dose dependent manner
same,protection against I/R at high concentrations,[3]; 50 μM and 100 μM,not observed
same,"protection of cardiomyocytes against I/R (cell viability, Trypan blue)","[3]; 60 minutes ischemia, 30 minutes reperfusion",protected cardiomyocytes against I/R at various concentrations
same,VO2 in cardiomyocytes,[3]; compared to DMSO treated cells,decrease in VO2
same,PolyQ protein aggregation,[4]; 33.33 μM,no effects
same,transgenic protein expression (worms),[4]; 33.33 μM,no changes were observed
same,axonal swelling,"[4]; 33.33 μM, PLM neurons",reduced
same,sensory response to tail poke,"[4]; mutant PolyQ animals, 3 days",improved the sensory response to tail poke in a dose dependent manner
same,concentration of optimal response,[4]; touch response,33.33 µM
same,transgenic protein expression (flies),[5],did not influence
same,rhabdomere loss,[5]; compared to DMSO,did protect against rhabdomere loss
same,cell viability after oxygen and glucose deprivation,[6],significant improvement in cell viability
same,EC50,Trypanosoma brucei,1410 ± 120 nM
same,Sglu/gal (log10 fold change) Score,MCH58 fibroblasts [7],0.16
